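96-well plates; 48 h exposure; 5 concentrations. Endpoints by linear interpolation between flanking doses. Not reached: highest tested concentration assigned. The concentration for 50% growth inhibition is given as GI50.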 The source made the active and inactive calls. No stated cut-off is given here; in the data, active = GI50 up to about 1.1 µM and inactive = higher.

Assay in all cases: NCI-60 cell line screen, 48 h
Assay [1] relates to A498.
Assay [2] relates to HCC 2998.
Assay [3] concerns HCT-116.
Assay [4] concerns HL-60.
Assay [5] deals with IGROV-1.
Assay [6] has as its system KM12.
The test system of assay [7] is MDA-MB-435.
Assay [8] relates to MOLT-4.
Assay [9] concerns NCI-H23.
Assay [10] concerns OVCAR-3.
Assay [11] concerns OVCAR-8.
Assay [12] deals with PC-3.
In assay [13] the test system is RPMI-8226.
For assay [14], the system named is RXF 393.
For assay [15], the system named is SK-MEL-5.
Assay [16] has as its system SR.
For assay [17], the system named is SW-620.
Assay [18] deals with U-251.
Assay [19] deals with UO-31.
For assay [20], the system named is HOP-62.

With `CC(C)(C)OC(=O)C1CC[C@@H](CC(=O)Oc2ccc([N+](=O)[O-])cc2)N1` (some centres not stated), the GI50 in assay [1], in assay [2], in assay [3], in [4], in assay [5] and in assay [6] was > 100 µM (inactive) in each case. In addition, the GI50 in [7], in assay [8], in [9], in assay [10], in assay [11] and in [12] was > 100 µM (inactive) throughout. For the same compound, the GI50 in assay [13] was > 100 µM (inactive); in [14] it was > 100 µM (inactive); in assay [15] it was > 100 µM (inactive); in assay [16], 59 µM (inactive); in assay [17], > 100 µM (inactive); in [18], > 100 µM (inactive). Further, the GI50 in assay [19] is > 100 µM (inactive).
For `C[C@]12CC[C@@H]3c4ccc(OC(=O)c5ccccc5)cc4CC[C@H]3[C@@H]1CCC2OC(=O)c1cccc2c(=O)c3ccccc3[nH]c12` (some centres not stated), the GI50 in assay [1] was 26 µM (inactive); in assay [2], 15.2 µM (inactive); in assay [3], 16.4 µM (inactive); in [4], 18.8 µM (inactive); in [20], 22.3 µM (inactive); in [5], 16.5 µM (inactive). The GI50 is 15.4 µM (inactive) in [6]; 3.77 µM (inactive) in assay [7]; 63 µM (inactive) in assay [8]; 20.8 µM (inactive) in assay [9]; 26.1 µM (inactive) in [10]; 18.3 µM (inactive) in assay [11]. In addition, the GI50 was 13.4 µM (inactive) in assay [12]; 29.9 µM (inactive) in assay [13]; 14.4 µM (inactive) in assay [14]; 24.1 µM (inactive) in assay [15]; 25.8 µM (inactive) in assay [16]; 12.1 µM (inactive) in assay [17]. The figures for the GI50 in assay [18] and in [19] were 15.7 µM (inactive) and 27.6 µM (inactive), respectively.
For `Cc1nc2ccccc2c(=O)n1NC(=O)c1ccccc1[N+](=O)[O-]`, the GI50 in assay [1], in assay [2], in assay [3], in [4], in [20] and in [5] was > 100 µM (inactive) in each case. Further, the GI50 is > 100 µM (inactive) in [6]; > 100 µM (inactive) in assay [7]; > 100 µM (inactive) in assay [8]; > 100 µM (inactive) in assay [9]; > 100 µM (inactive) in assay [10]; > 10 µM (inactive) in assay [11]. Moreover, the GI50 was > 100 µM (inactive) in [12]; > 100 µM (inactive) in assay [13]; > 10 µM (inactive) in [14]; > 100 µM (inactive) in assay [15]; > 100 µM (inactive) in assay [16]; > 100 µM (inactive) in assay [17]. Further, the GI50 in assay [18] and in assay [19] was > 100 µM (inactive) each time.
Turning to `COc1cccc2c1C(=O)c1c(O)c3c(c(O)c1C2=O)C[C@@](O)(C(=O)CO)C[C@@H]3OC1CC2C(OCN3CN2COC2C(C)OC(O[C@H]4C[C@](O)(C(=O)CO)Cc5c(O)c6c(c(O)c54)C(=O)c4c(OC)cccc4C6=O)CC23)C(C)O1` (some centres not stated), the GI50 in assay [1] was 0.0559 µM (active); in assay [2] it was 0.0274 µM (active); in assay [3], 0.0289 µM (active); in assay [4], 0.0258 µM (active); in assay [20], 0.04 µM (active); in assay [5] it was 0.0266 µM (active). The GI50 in assay [6] is 0.0635 µM (active); in assay [7], 0.0891 µM (active); in assay [8], 0.00269 µM (active); in assay [9], 0.027 µM (active); in assay [10] it was 0.112 µM (active); in assay [11] it was 0.0376 µM (active). In addition, the GI50 in [12] is 0.0929 µM (active); in [13], 0.0184 µM (active); in assay [14], 0.0106 µM (active); in assay [15], 0.0614 µM (active); in [16], 0.00119 µM (active); in [17], 0.0187 µM (active). The figures for the GI50 in assay [18] and in assay [19] were 0.0186 µM (active) and 0.139 µM (active), respectively.
For the compound `CC(=O)NC1=CC(=O)c2cc(C)cc(O)c2C1=O`, the GI50 is 11 µM (inactive) in assay [1]; 2.03 µM (inactive) in assay [2]; 5.51 µM (inactive) in [3]; 1.88 µM (inactive) in assay [4]; 17.9 µM (inactive) in assay [20]; 11.8 µM (inactive) in assay [5]. Besides, the GI50 in assay [6] is 9.84 µM (inactive); in [7] it was 0.721 µM (active); in [8] it was 4.85 µM (inactive); in assay [9], 1.72 µM (inactive); in [10], 2.65 µM (inactive); in assay [11] it was 2.44 µM (inactive). Also, the GI50 is 12.5 µM (inactive) in assay [12]; 2.92 µM (inactive) in [13]; 12.5 µM (inactive) in [14]; 1.14 µM (inactive) in assay [15]; 9.1 µM (inactive) in [16]; 3.41 µM (inactive) in [17]. Also, the results for the GI50 in assay [18] and in [19] were 9.33 µM (inactive) and 7.59 µM (inactive), respectively.
Consider `CC1=NOC2(C1)C(=O)Nc1ccccc12` (configuration not stated), for which the GI50 was 34.3 µM (inactive) in [1]; > 100 µM (inactive) in assay [2]; > 100 µM (inactive) in assay [3]; > 100 µM (inactive) in assay [4]; > 100 µM (inactive) in assay [20]; > 100 µM (inactive) in assay [5]. Moreover, the GI50 in [6], in assay [7], in assay [8], in assay [9], in assay [10] and in assay [11] was > 100 µM (inactive) each time. Also, the GI50 was > 100 µM (inactive) in assay [12]; > 100 µM (inactive) in [13]; > 100 µM (inactive) in assay [14]; 60.5 µM (inactive) in [15]; > 100 µM (inactive) in [16]; 24.4 µM (inactive) in [17]. Also, the values for the GI50 in assay [18] and in assay [19] were > 100 µM (inactive) and 0.0121 µM (active), respectively.
As to `CCc1[nH]nc(C(N)=O)c1/N=N/N(C)C`, the GI50 in [1] is > 100 µM (inactive); in assay [2], > 100 µM (inactive); in [3], 72.1 µM (inactive); in assay [4], 9.62 µM (inactive); in [20] it was 82.6 µM (inactive); in assay [5], 34.8 µM (inactive). Moreover, the GI50 is 56.5 µM (inactive) in [6]; 64.6 µM (inactive) in [7]; 6.46 µM (inactive) in assay [8]; 54.1 µM (inactive) in assay [9]; > 100 µM (inactive) in assay [10]; 73.1 µM (inactive) in assay [11]. The GI50 in assay [12] was > 100 µM (inactive); in assay [13], 81.5 µM (inactive); in [14], > 100 µM (inactive); in [15], 70 µM (inactive); in assay [16], 10.1 µM (inactive); in assay [17] it was > 100 µM (inactive). Also, the GI50 in [18] was 48.3 µM (inactive); in assay [19] it was 2.58 µM (inactive).
As to `CN(CCCN1CCCC1)CCCN(C)C(=O)Cc1ccc(Cl)c(Cl)c1`, the GI50 was 14.5 µM (inactive) in assay [1]; 5.68 µM (inactive) in [2]; 13.6 µM (inactive) in [3]; 15.7 µM (inactive) in assay [4]; 19.2 µM (inactive) in assay [20]; 23.9 µM (inactive) in [5]. Moreover, the GI50 in [6] was 18.7 µM (inactive); in [7], 3.04 µM (inactive); in assay [8] it was 13.2 µM (inactive); in [9] it was 21.2 µM (inactive); in assay [10] it was 27 µM (inactive); in [11] it was 30 µM (inactive). The GI50 in [12] is 22.1 µM (inactive); in [13] it was 4.61 µM (inactive); in assay [14], 12.2 µM (inactive); in assay [15], 15.3 µM (inactive); in assay [16] it was 11.9 µM (inactive); in assay [17], 18.4 µM (inactive). Also, the GI50 in assay [18] was 14.9 µM (inactive); in [19], 4.69 µM (inactive).
As to `Cc1c(C(=O)OCc2ccccc2)[n+]([O-])c2cc(Cl)c(Cl)cc2[n+]1[O-]`, the GI50 in assay [1] was 20.5 µM (inactive); in assay [2], 15.2 µM (inactive); in assay [3], 14.2 µM (inactive); in assay [4], 11.7 µM (inactive); in assay [20], 14.2 µM (inactive); in assay [5], 5.83 µM (inactive). Besides, the GI50 in assay [6] was 10.5 µM (inactive); in assay [7] it was 19.8 µM (inactive); in assay [8] it was 3.28 µM (inactive); in [9], 18.5 µM (inactive); in [10], 12.2 µM (inactive); in [11], 18.2 µM (inactive). The GI50 in [12] is 15.7 µM (inactive); in assay [13] it was 6.46 µM (inactive); in assay [14], 19.1 µM (inactive); in assay [15], 15 µM (inactive); in [16] it was 5.37 µM (inactive); in assay [18], 24.6 µM (inactive). For the same compound, in assay [19], the GI50 is 16.4 µM (inactive).
For the compound `O=c1c2cccnc2[nH]c2ccc3scnc3c12`, the GI50 in [1] is 7.62 µM (inactive); in assay [2], > 10 µM (inactive); in [3], 3.3 µM (inactive); in assay [4], 4.86 µM (inactive); in [20], > 10 µM (inactive); in assay [5] it was 4.81 µM (inactive). For the same compound, the GI50 is 6.7 µM (inactive) in assay [6]; 9.82 µM (inactive) in [7]; 4.34 µM (inactive) in assay [8]; > 10 µM (inactive) in assay [9]; 4.28 µM (inactive) in assay [10]; > 10 µM (inactive) in [11]. Further, the GI50 in assay [12] was > 10 µM (inactive); in assay [13], > 10 µM (inactive); in [14], 3.11 µM (inactive); in assay [15], 7.01 µM (inactive); in assay [16], 4.32 µM (inactive); in [17], > 10 µM (inactive). The GI50 in assay [18] was > 10 µM (inactive).

(Values after ChEMBL document CHEMBL1201862, “PubChem BioAssay data set” (2004).)
